The values below come from patent US8354436B2 (4SC Discovery GmbH, priority 2011, dated 2013).

One test relates to IFN-γ. The experiment in a line: IFN-γ production by PHA-stimulated human PBMC (OptEIA human IFN-g ELISA). In kind it is cell-based. The conditions noted are these: PHA-stimulated human PBMC, 48 hours; column C; read-out: IC50 (IFNγ). As to the method: Analysis of Proliferation of and Cytokine Production by Human PBMC Stimulated with PHA
Peripheral blood mononuclear cells (PBMC) from healthy human donors were purified using Accuspin™ System-Histopaque-1077 (Sigma) according to the protocol recommended by the manufacturer. Purified PBMC were then washed twice with phosphate-buffered saline (PBS) and resuspended in RPMI1640 culture medium supplemented with 10% dialyzed heat inactivated fetal calf serum, 1.5 mM L-glutamine, 100 U penicillin/ml, and […] (all from PAN Biotech, Aidenbach, Germany). For stimulation, PBMC were seeded at 1×10^5 cells/well, activated with 2 μg/ml phytohaemagglutinin (PHA, Sigma) and incubated with the test compounds for 48 hours. IL-17A, IL-17F and INF-γ were then determined in the culture supernatant using a Luminex BioPlex system, following the manufacturer's instructions (BioRad, Munich, Germany). For screening, compounds were used at 10, 1, 0.1 and 0.01 μM. To determine the IC50, compounds were titrated semilogarithmically.
Cytokines were determined in the aforementioned culture supernatant using the following methods: IL-17AA/AF was measured using the Luminex BioPlex system (BioRad, Munich, Germany); IL-17AA using the human homodimer IL-17A ELISA Ready Set Go Kit from eBioscience (Frankfurt, Germany); IL-17FF using the human IL-17F ELI-Pair from Hölzel DiagnosticaGmBH (Köln, Germany); and IFN-γ using the OptEIA human IFN-g ELISA from BD Bioscience (Heidelberg, Germany), all following the manufacturer's instructions.
For orientation: An ELISA detects its analyte on a solid surface through an enzyme-linked reagent.

The test system of test [1] is PBMC from healthy human donors. The experiment in a line: T cell proliferation assay (PHA-stimulated human PBMC, BrdU ELISA). Type of test: cell-based. The conditions noted are these: PHA-stimulated human PBMC, 48 hours, column D, read-out: IC50 (Tcell proliferation). The procedure:
Cell proliferation was analysed using the BrdU based cell proliferation ELISA from Roche (Mannheim, Germany) according to the manufacturer's instructions. T Cell Proliferation Assay Peripheral blood mononuclear cells (PBMC) from healthy human donors were isolated by centrifugation over Ficoll-Hypaque (Sigma-Aldrich, Germany) according to manufacturer's instructions. Purified PBMC were washed twice with PBS and resuspended in RPMI1640 culture medium supplemented with 10% dialyzed heat inactivated fetal calf serum, 1.5 mM L-glutamine, 100 U penicillin/ml, and […] (all from PAN Biotech, Aidenbach, Germany). For stimulation, PBMC were seeded at 1×10^5 cells/well, activated with 2 μg/ml phytohaemagglutinin (PHA, Sigma) and incubated with the test compound. After 48 hours proliferation was measured using the BrdU based cell proliferation ELISA from Roche (Mannheim, Germany) according to the manual.

Consider `O=C(c1c(-c2c(F)cccc2Cl)noc1-c1cnn(-c2ccccc2F)c1C(F)(F)F)N1CCCCC1` [Example I-21, (3-(2-chloro-6-fluorophenyl)-5-(1-(2-fluorophenyl)-5-(trifluoromethyl)-1H-pyrazol-4-yl)isoxazol-4-yl)(piperidin-1-yl)methanone], for which the IC50 (in the test with IFN-γ; in test [1]) was 10 to 100 nM each time.

Regarding `O=C(c1c(-c2c(F)cccc2Cl)noc1-c1cnn(-c2ccccc2F)c1C(F)(F)F)N1CCN(Cc2cccc(Cl)c2)CC1` [Example I-24, (3-(2-chloro-6-fluorophenyl)-5-(1-(2-fluorophenyl)-5-(trifluoromethyl)-1H-pyrazol-4-yl)isoxazol-4-yl)(4-(3-chlorobenzyl)piperazin-1-yl)methanone], the IC50 with IFN-γ fell in the range of 1000 to 10000 nM; in test [1] it was 100 to 1000 nM.

As to `COC(=O)c1c(-c2ccccc2)noc1-c1cnn(-c2cccc(F)c2)c1C(F)(F)F` [Example I-51, methyl 5-(1-(3-fluorophenyl)-5-(trifluoromethyl)-1H-pyrazol-4-yl)-3-phenylisoxazole-4-carboxylate], the IC50 (with IFN-γ; in test [1]) was 1000 to 10000 nM each time.

For `COC(=O)c1c(-c2c(F)cccc2Cl)noc1-c1cnn(-c2nccc(C(F)(F)F)n2)c1C(F)(F)F` [Example I-67, methyl 3-(2-chloro-6-fluorophenyl)-5-(5-(trifluoromethyl)-1-(4-(trifluoromethyl)pyrimidin-2-yl)-1H-pyrazol-4-yl)isoxazole-4-carboxylate], the IC50 in test [1] lay in the range of 100 to 1000 nM.

In the case of `CNC(=S)c1c(-c2c(F)cccc2Cl)noc1-c1cnn(-c2cccc(Cl)c2)c1C(F)(F)F` [Example I-72, 3-(2-chloro-6-fluorophenyl)-5-(1-(3-chlorophenyl)-5-(trifluoromethyl)-1H-pyrazol-4-yl)-N-methylisoxazole-4-carbothioamide], the IC50 (in the test on IFN-γ; in test [1]) was 100 to 1000 nM throughout.

As to `COC(=O)c1c(-c2ccc(Cl)cc2)noc1-c1cnn(-c2cccc(F)c2)c1C(F)(F)F` [Example I-73, methyl 3-(4-chlorophenyl)-5-(1-(3-fluorophenyl)-5-(trifluoromethyl)-1H-pyrazol-4-yl)isoxazole-4-carboxylate], the IC50 in test [1] lay within 1000 to 10000 nM.

With `COC(=O)c1c(-c2ccccc2)noc1-c1cnn(-c2ccc(OC(F)(F)F)cc2)c1C(F)(F)F` [Example I-74, methyl 3-phenyl-5-(1-(4-(trifluoromethoxy)phenyl)-5-(trifluoromethyl)-1H-pyrazol-4-yl)isoxazole-4-carboxylate], in test [1], the IC50 lay in the range of 1000 to 10000 nM.

Turning to `COC(=O)c1c(-c2c(F)cccc2Cl)noc1-c1cnn(-c2cccc(C(F)(F)F)c2)c1C(F)(F)F` [Example I-82, methyl 3-(2-chloro-6-fluorophenyl)-5-(5-(trifluoromethyl)-1-(3-(trifluoromethyl)phenyl)-1H-pyrazol-4-yl)isoxazole-4-carboxylate], in test [1], the IC50 was 1000 to 10000 nM.

On to `COC(=O)c1c(-c2c(F)cccc2Cl)noc1-c1cnn(-c2ncc(C(F)(F)F)cc2Cl)c1C(F)(F)F` [Example I-87], for which the IC50 in test [1] was in the range of 1000 to 10000 nM.

As to `COC(=O)c1c(-c2c(F)cccc2Cl)noc1-c1cnn(-c2ccccc2I)c1C(F)(F)F` [Example I-88, methyl 3-(2-chloro-6-fluorophenyl)-5-(1-(2-iodophenyl)-5-(trifluoromethyl)-1H-pyrazol-4-yl)isoxazole-4-carboxylate], the IC50 in test [1] fell in the range of 1000 to 10000 nM.

Consider `O=C(O)c1c(-c2ccccc2F)noc1-c1cnn(-c2cccc(F)c2)c1C(F)(F)F` [Example I-91, 3-(2-fluorophenyl)-5-(1-(3-fluorophenyl)-5-(trifluoromethyl)-1H-pyrazol-4-yl)isoxazole-4-carboxylic acid], for which the IC50 in test [1] fell in the range of 1000 to 10000 nM.

For the compound `COC(=O)c1c(-c2ccc(Cl)c(Cl)c2)noc1-c1cnn(-c2cccc(F)c2)c1C(F)(F)F` [Example I-97, methyl 3-(3,4-dichlorophenyl)-5-(1-(3-fluorophenyl)-5-(trifluoromethyl)-1H-pyrazol-4-yl)isoxazole-4-carboxylate], the IC50 in test [1] was 1000 to 10000 nM.

As to `COC(=O)c1c(-c2ccc(OC)cc2)noc1-c1cnn(-c2cccc(F)c2)c1C(F)(F)F` [Example I-107, methyl 5-(1-(3-fluorophenyl)-5-(trifluoromethyl)-1H-pyrazol-4-yl)-3-(4-methoxyphenyl)isoxazole-4-carboxylate], in test [1], the IC50 lay in the range of 1000 to 10000 nM.

For `COc1ccc(-c2noc(-c3cnn(-c4cccc(F)c4)c3C(F)(F)F)c2C(=O)O)cc1` [Example I-108, 5-(1-(3-fluorophenyl)-5-(trifluoromethyl)-1H-pyrazol-4-yl)-3-(4-methoxyphenyl)isoxazole-4-carboxylic acid], the IC50 in test [1] was 1000 to 10000 nM.

As for `CCOc1cc(-n2ncc(-c3onc(-c4c(F)cccc4Cl)c3C(=O)OC)c2C(F)(F)F)ncn1` [Example I-116, methyl 3-(2-chloro-6-fluorophenyl)-5-(1-(6-ethoxypyrimidin-4-yl)-5-(trifluoromethyl)-1H-pyrazol-4-yl)isoxazole-4-carboxylate], in test [1], the IC50 was in the range of 1000 to 10000 nM.

On to `NC(=O)c1c(-c2c(F)cccc2Cl)noc1-c1cnn(-c2cccc(F)c2)c1C(F)(F)F` [Example I-124, 3-(2-chloro-6-fluorophenyl)-5-(1-(3-fluorophenyl)-5-(trifluoromethyl)-1H-pyrazol-4-yl)isoxazole-4-carboxamide], for which the IC50 (in the test on IFN-γ; in test [1]) was 1000 to 10000 nM each time.

On to `COC(=O)c1c(-c2c(F)cccc2Cl)noc1-c1cnn(-c2onc(-c3ccc(Cl)cc3)c2C(=O)OC)c1C(F)(F)F` [Example I-131, methyl 3-(2-chloro-6-fluorophenyl)-5-{[1-(4-methoxycarbonyl-3-(4-chlorophenyl)isoxazol-5-yl)-5-trifluoromethyl-1H-pyrazol-4-yl]}-isoxazole-4-carboxylate], for which the IC50 in test [1] lay in the range of 1000 to 10000 nM.

For the compound `NNC(=O)c1c(-c2cccc(F)c2)noc1-c1cnn(-c2cccc(F)c2)c1C(F)(F)F` [Example I-134, 3-(3-fluorophenyl)-5-(1-(3-fluorophenyl)-5-(trifluoromethyl)-1H-pyrazol-4-yl)isoxazole-4-carbohydrazide], the IC50 in test [1] was in the range of 1000 to 10000 nM.

On to `Fc1ccccc1-n1ncc(-c2onc(-c3c(F)cccc3Cl)c2Br)c1C(F)(F)F` [IB-26, 4-bromo-3-(2-chloro-6-fluorophenyl)-5-(1-(2-fluorophenyl)-5-(trifluoromethyl)-1H-pyrazol-4-yl)isoxazole], for which the IC50 lay in the range of 100 to 1000 nM with IFN-γ and 1000 to 10000 nM in test [1].

With `CC(C)=NNC(=O)c1c(-c2c(F)cccc2Cl)noc1-c1cnn(-c2cccc(F)c2)c1` [IB-29, 3-(2-chloro-6-fluorophenyl)-5-(1-(3-fluorophenyl)-1H-pyrazol-4-yl)-N′-(propan-2-ylidene)isoxazole-4-carbohydrazide], the IC50 (with IFN-γ; in test [1]) was 1000 to 10000 nM throughout.

For the compound `CN1CCN(C(=O)c2c(-c3c(F)cccc3Cl)noc2-c2cnn(-c3cccc(Cl)c3)c2C(F)(F)F)CC1` [IB-34, (3-(2-chloro-6-fluorophenyl)-5-(1-(3-chlorophenyl)-5-(trifluoromethyl)-1H-pyrazol-4-yl)-isoxazol-4-yl)(4-methylpiperazin-1-yl)methanone], the IC50 (in the test with IFN-γ; in test [1]) was 100 to 1000 nM each time.

Turning to `CC(=O)Nc1c(-c2c(F)cccc2Cl)noc1-c1cnn(-c2cccc(Cl)c2)c1C(F)(F)F` [IB-39, N-(3-(2-chloro-6-fluorophenyl)-5-(1-(3-chlorophenyl)-5-(trifluoromethyl)-1H-pyrazol-4-yl)-isoxazol-4-yl)acetamide], the IC50 (in the test with IFN-γ; in test [1]) was 1000 to 10000 nM throughout.

Regarding `CCOC(=O)c1c(-c2c(F)cccc2Cl)noc1-c1cnn(-c2ccc(C#N)cc2)c1C(F)(F)F` [IB-40, ethyl 3-(2-chloro-6-fluorophenyl)-5-(1-(4-cyanophenyl)-5-(trifluoromethyl)-1H-pyrazol-4-yl)-isoxazole-4-carboxylate], the IC50 (in the test with IFN-γ; in test [1]) was 1000 to 10000 nM in each case.

Regarding `CC(C)OC(=O)c1c(-c2c(F)cccc2Cl)noc1-c1cnn(-c2cccc(S(N)(=O)=O)c2)c1C(F)(F)F` [IB-73, isopropyl 3-(2-chloro-6-fluorophenyl)-5-(1-(3-sulfamoylphenyl)-5-(trifluoromethyl)-1H-pyrazol-4-yl)isoxazole-4-carboxylate], the IC50 (in the test with IFN-γ; in test [1]) was 1000 to 10000 nM throughout.

For the compound `O=C(O)c1c(-c2c(F)cccc2Cl)noc1-c1cnn(Cc2ccccc2F)c1C(F)(F)F` [IB-86, 3-(2-chloro-6-fluorophenyl)-5-(1-(2-fluorobenzyl)-5-(trifluoromethyl)-1H-pyrazol-4-yl)isoxazole-4-carboxylic acid], the IC50 in test [1] lay within 1000 to 10000 nM.
